Measured values taken from ChEMBL document CHEMBL1697781, “Assessment of the health effects of chemicals in humans: II. Construction of an adverse effects database for QSAR modeling” (Curr Drug Discov Technol, 2004).

Tests used:
Conditions in all cases: human; call rule not given here
Hepatotoxicity [1] = assay: FDA HLAED, serum glutamic oxaloacetic transaminase (SGOT) increase
Hepatotoxicity [2] = assay: FDA HLAED, lactate dehydrogenase (LDH) increase
Hepatotoxicity [3] = assay: FDA HLAED, liver enzyme composite activity
Hepatotoxicity [4] = assay: FDA HLAED, gamma-glutamyl transferase (GGT) increase
Hepatotoxicity [5] = assay: FDA HLAED, alkaline phosphatase increase
Hepatotoxicity [6] = assay: FDA HLAED, serum glutamic pyruvic transaminase (SGPT) increase
For GGT Increase - Index Value in this document: reference of the scale not given here.
For LDH Increase - Index Value in this document: reference of the scale not given here.

Structure (SMILES) | SGOT Increase - Activity Score (Hepatotoxicity [1]) | SGOT Increase - Index Value (Hepatotoxicity [1]) | SGOT Increase - Number of Reports (Hepatotoxicity [1]) | LDH Increase - Activity Score (Hepatotoxicity [2]) | LDH Increase - Index Value (Hepatotoxicity [2]) | LDH Increase - Number of Reports (Hepatotoxicity [2]) | Composite Activity - Active (Hepatotoxicity [3]) | Composite Activity - Marginal (Hepatotoxicity [3]) | Composite Activity - Score (Hepatotoxicity [3]) | GGT Increase - Activity Score (Hepatotoxicity [4]) | GGT Increase - Index Value (Hepatotoxicity [4]) | GGT Increase - Number of Reports (Hepatotoxicity [4]) | Alkaline Phosphatase Increase - Activity Score (Hepatotoxicity [5]) | Alkaline Phosphatase Increase - Index Value (Hepatotoxicity [5]) | Alkaline Phosphatase Increase - Number of Reports (Hepatotoxicity [5]) | SGPT Increase - Activity Score (Hepatotoxicity [6]) | SGPT Increase - Index Value (Hepatotoxicity [6]) | SGPT Increase - Number of Reports (Hepatotoxicity [6])
CC(=O)[C@]1(O)Cc2c(O)c3c(c(O)c2[C@@H](O[C@H]2C[C@H](N)[C@H](O)[C@H](C)O2)C1)C(=O)c1ccccc1C3=O [IDARUBICIN] | Inactive | 0 | < 4 | Inactive | 0 | < 4 | 0 | 0 | Inactive | Inactive | 0 | < 4 | Inactive | 0 | < 4 | Inactive | 0 | < 4
O=P1(NCCCl)OCCCN1CCCl (stereo unspecified) [IFOSFAMIDE] | Active | 17.5 | >= 4 | Inactive | 7.5 | < 4 | 1 | 0 | Inactive | Inactive | 0 | < 4 | Inactive | 5 | < 4 | Inactive | 7.5 | < 4
Nc1cc(-c2ccncc2)c[nH]c1=O [INAMRINONE] | Inactive | 6.6 | < 4 | Inactive | 2.2 | < 4 | 0 | 0 | Inactive | Inactive | 0 | < 4 | Inactive | 2.2 | < 4 | Inactive | 4.4 | < 4
CC1Cc2ccccc2N1NC(=O)c1ccc(Cl)c(S(N)(=O)=O)c1 (stereo unspecified) [INDAPAMIDE] | Inactive | 1 | < 4 | Inactive | 0.5 | < 4 | 0 | 0 | Inactive | Inactive | 0 | < 4 | Inactive | 0.5 | < 4 | Inactive | 0.5 | < 4
CC(=O)N(CC(O)CN(C(C)=O)c1c(I)c(C(=O)NCC(O)CO)c(I)c(C(=O)NCC(O)CO)c1I)c1c(I)c(C(=O)NCC(O)CO)c(I)c(C(=O)NCC(O)CO)c1I (stereo unspecified) [IODIXANOL] | Inactive | 0 | < 4 | Inactive | 0 | < 4 | 0 | 0 | Inactive | Inactive | 0 | < 4 | Inactive | 0 | < 4 | Inactive | 0 | < 4
CC(=O)N(CC(O)CO)c1c(I)c(C(=O)NCC(O)CO)c(I)c(C(=O)NCC(O)CO)c1I (stereo unspecified) [IOHEXOL] | Inactive | 144.9 | < 4 | Inactive | 144.9 | < 4 | 0 | 0 | Inactive | Inactive | 0 | < 4 | Inactive | 144.9 | < 4 | Inactive | 0 | < 4
C[C@H](O)C(=O)Nc1c(I)c(C(=O)NC(CO)CO)c(I)c(C(=O)NC(CO)CO)c1I [IOPAMIDOL] | Inactive | 526.3 | < 4 | Active | 1579 | < 4 | 1 | 0 | Inactive | Inactive | 0 | < 4 | Inactive | 0 | < 4 | Inactive | 0 | < 4
COCC(=O)Nc1c(I)c(C(=O)NCC(O)CO)c(I)c(C(=O)N(C)CC(O)CO)c1I (stereo unspecified) [IOPROMIDE] | Inactive | 0 | < 4 | Inactive | 0 | < 4 | 0 | 0 | Inactive | Inactive | 0 | < 4 | Inactive | 0 | < 4 | Inactive | 0 | < 4
O=C(NCC(O)CO)c1c(I)c(C(=O)NCC(O)CO)c(I)c(N(CCO)C(=O)CO)c1I (stereo unspecified) [IOVERSOL] | Inactive | 0 | < 4 | Inactive | 400 | < 4 | 0 | 0 | Inactive | Inactive | 0 | < 4 | Inactive | 0 | < 4 | Inactive | 0 | < 4
CCc1c2c(nc3ccc(OC(=O)N4CCC(N5CCCCC5)CC4)cc13)-c1cc3c(c(=O)n1C2)COC(=O)[C@]3(O)CC [IRINOTECAN] | Inactive | 6.1 | < 4 | Inactive | 4.1 | < 4 | 0 | 0 | Inactive | Inactive | 2 | < 4 | Inactive | 4.1 | < 4 | Inactive | 6.1 | < 4
FC(F)OC(Cl)C(F)(F)F (stereo unspecified) [ISOFLURANE] | Inactive | 1 | >= 4 | Inactive | 0 | < 4 | 0 | 0 | Inactive | Inactive | 0 | < 4 | Inactive | 0.6 | < 4 | Inactive | 0.4 | < 4
NNC(=O)c1ccncc1 [ISONIAZID] | Active | 38.7 | >= 4 | Active | 10 | >= 4 | 5 | 0 | Active | Active | 8 | >= 4 | Active | 12.7 | >= 4 | Active | 34.7 | >= 4
